# pIC50: −log10 of the molar value.
# System: 945468-187-T-J3-PDC spheroids with HUVEC/MSC, viability
# Assay: Anticancer human tumor 945468-187-T-J3-PDC patient-derived rectal carcinoma cell line growth inhibition [PI3K]
# Details: for pIC50: curve of first compound; for viability, T/C: stronger effect = lower value
# Outline: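 Viability of mixed-cell spheroids was determined after exposure to pairwise combinations, one partner being inavolisib, alpelisib, duvelisib or copanlisib. Highest tested concentration matched clinical Cmax where known and 10 microM where not, descending in half-log steps.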
# [1] = second compound 0.0316 µM, first compound 0.0316 µM
# [2] = second compound 0.0316 µM, first compound 0.1 µM
# [3] = second compound 0.1 µM, first compound 0.0316 µM
# [4] = second compound 0.1 µM, first compound 0.1 µM
# [5] = second compound 0.316 µM, first compound 0.0316 µM
# [6] = second compound 0.316 µM, first compound 0.1 µM
# [7] = second compound 1 µM, first compound 0.0316 µM
# [8] = second compound 1 µM, first compound 0.1 µM
# [9] = second compound 3.16 µM, first compound 0.0316 µM
# [10] = second compound 3.16 µM, first compound 0.1 µM
# [11] = second compound 10 µM, first compound 0.0316 µM
# [12] = second compound 10 µM, first compound 0.1 µM
# 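Further: spheroids exposed to agents for 7 days before viability read.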
# 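Wherever viability, T/C is given: 100% = DMSO vehicle control viability.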
smiles,measurement,setting,value
CC(C)n1nc(-c2ccc3oc(N)nc3c2)c2c(N)ncnc21 + Cc1nc(NC(=O)N2CCCC2C(N)=O)sc1-c1ccnc(C(C)(C)C(F)(F)F)c1,pIC50,second compound 0.0316 µM,< 7.00
same,pIC50,second compound 0.1 µM,< 7.00
same,pIC50,second compound 0.316 µM,< 7.00
same,pIC50,second compound 1 µM,7.11
same,pIC50,second compound 3.16 µM,7.52
same,pIC50,second compound 10 µM,7.97
same,"viability, T/C","second compound 0.0316 µM, first compound 0.000316 µM",105%
same,"viability, T/C","second compound 0.0316 µM, first compound 0.001 µM",118%
same,"viability, T/C","second compound 0.0316 µM, first compound 0.00316 µM",98.8%
same,"viability, T/C","second compound 0.0316 µM, first compound 0.01 µM",114%
same,"viability, T/C",[1],127%
same,"viability, T/C",[2],65.5%
same,"viability, T/C","second compound 0.1 µM, first compound 0.000316 µM",109%
same,"viability, T/C","second compound 0.1 µM, first compound 0.001 µM",109%
same,"viability, T/C","second compound 0.1 µM, first compound 0.00316 µM",95.4%
same,"viability, T/C","second compound 0.1 µM, first compound 0.01 µM",115%
same,"viability, T/C",[3],118%
same,"viability, T/C",[4],54.5%
same,"viability, T/C","second compound 0.316 µM, first compound 0.000316 µM",113%
same,"viability, T/C","second compound 0.316 µM, first compound 0.001 µM",104%
same,"viability, T/C","second compound 0.316 µM, first compound 0.00316 µM",97.5%
same,"viability, T/C","second compound 0.316 µM, first compound 0.01 µM",121%
same,"viability, T/C",[5],111%
same,"viability, T/C",[6],53.3%
same,"viability, T/C","second compound 1 µM, first compound 0.000316 µM",116%
same,"viability, T/C","second compound 1 µM, first compound 0.001 µM",114%
same,"viability, T/C","second compound 1 µM, first compound 0.00316 µM",101%
same,"viability, T/C","second compound 1 µM, first compound 0.01 µM",109%
same,"viability, T/C",[7],84%
same,"viability, T/C",[8],39.6%
same,"viability, T/C","second compound 3.16 µM, first compound 0.000316 µM",108%
same,"viability, T/C","second compound 3.16 µM, first compound 0.001 µM",104%
same,"viability, T/C","second compound 3.16 µM, first compound 0.00316 µM",102%
same,"viability, T/C","second compound 3.16 µM, first compound 0.01 µM",77.2%
same,"viability, T/C",[9],49.9%
same,"viability, T/C",[10],29.7%
same,"viability, T/C","second compound 10 µM, first compound 0.000316 µM",68%
same,"viability, T/C","second compound 10 µM, first compound 0.001 µM",53.3%
same,"viability, T/C","second compound 10 µM, first compound 0.00316 µM",64.3%
same,"viability, T/C","second compound 10 µM, first compound 0.01 µM",50.2%
same,"viability, T/C",[11],31.8%
same,"viability, T/C",[12],22.7%
CC1(C)CCC(CN2CCN(c3ccc(C(=O)NS(=O)(=O)c4ccc(NCC5CCOCC5)c([N+](=O)[O-])c4)c(Oc4cnc5[nH]ccc5c4)c3)CC2)=C(c2ccc(Cl)cc2)C1 + Cc1nc(NC(=O)N2CCCC2C(N)=O)sc1-c1ccnc(C(C)(C)C(F)(F)F)c1,pIC50,second compound 0.0316 µM,5.16
same,pIC50,second compound 0.1 µM,5.19
same,pIC50,second compound 0.316 µM,5.18
same,pIC50,second compound 1 µM,5.18
same,pIC50,second compound 3.16 µM,5.20
same,pIC50,second compound 10 µM,5.37
same,"viability, T/C",[1],95.4%
same,"viability, T/C",[2],109%
same,"viability, T/C","second compound 0.0316 µM, first compound 0.316 µM",97.5%
same,"viability, T/C","second compound 0.0316 µM, first compound 1 µM",120%
same,"viability, T/C","second compound 0.0316 µM, first compound 3.16 µM",125%
same,"viability, T/C","second compound 0.0316 µM, first compound 10 µM",20.8%
same,"viability, T/C",[3],100%
same,"viability, T/C",[4],108%
same,"viability, T/C","second compound 0.1 µM, first compound 0.316 µM",101%
same,"viability, T/C","second compound 0.1 µM, first compound 1 µM",117%
same,"viability, T/C","second compound 0.1 µM, first compound 3.16 µM",123%
same,"viability, T/C","second compound 0.1 µM, first compound 10 µM",12.5%
same,"viability, T/C",[5],107%
same,"viability, T/C",[6],112%
same,"viability, T/C","second compound 0.316 µM, first compound 0.316 µM",113%
same,"viability, T/C","second compound 0.316 µM, first compound 1 µM",120%
same,"viability, T/C","second compound 0.316 µM, first compound 3.16 µM",130%
same,"viability, T/C","second compound 0.316 µM, first compound 10 µM",12.2%
same,"viability, T/C",[7],117%
same,"viability, T/C",[8],115%
same,"viability, T/C","second compound 1 µM, first compound 0.316 µM",106%
same,"viability, T/C","second compound 1 µM, first compound 1 µM",113%
same,"viability, T/C","second compound 1 µM, first compound 3.16 µM",114%
same,"viability, T/C","second compound 1 µM, first compound 10 µM",15.8%
same,"viability, T/C",[9],116%
same,"viability, T/C",[10],101%
same,"viability, T/C","second compound 3.16 µM, first compound 0.316 µM",101%
same,"viability, T/C","second compound 3.16 µM, first compound 1 µM",122%
same,"viability, T/C","second compound 3.16 µM, first compound 3.16 µM",104%
same,"viability, T/C","second compound 3.16 µM, first compound 10 µM",14.5%
same,"viability, T/C",[11],70.7%
same,"viability, T/C",[12],59%
same,"viability, T/C","second compound 10 µM, first compound 0.316 µM",63.8%
same,"viability, T/C","second compound 10 µM, first compound 1 µM",68.4%
same,"viability, T/C","second compound 10 µM, first compound 3.16 µM",63.3%
same,"viability, T/C","second compound 10 µM, first compound 10 µM",12.1%

# — PubChem BioAssay AID1963968 (Molecular Pharmacology Branch, DTP, NCI, 2024)
